According to ChEMBL document CHEMBL3124747, “Formosusin A, a novel specific inhibitor of mammalian DNA polymerase β from the fungus Paecilomyces formosus” (Bioorg Med Chem, 2014):

Columns and labels:
[1] = target: Inosine-5'-monophosphate dehydrogenase 2 (Mus musculus, UniProt P24547); assay: Inhibition of mouse IMP dehydrogenase 2 assessed as inhibition of incorporation of dTTP into poly(dA)/oligo(dT)18 after 60 mins
Polynucleotide kinase = Polynucleotide kinase (Enterobacteria phage T4, UniProt P06855); assay: Inhibition of T4 bacteriophage polynucleotide kinase assessed as inhibition of incorporation of dTTP into poly(dA)/oligo(dT)18 after 60 mins; design: species or system Tequatrovirus T4
[2] = Inhibition of calf DNA primase of polymerase alpha assessed as inhibition of incorporation of dTTP into poly(dA)/oligo(dT)18 after 60 mins; design: species or system Bos taurus
[3] = target: T1, DNA polymerase alpha catalytic subunit (Drosophila melanogaster, UniProt P26019); assay: Inhibition of fruit fly DNA polymerase alpha assessed as inhibition of incorporation of dTTP into poly(dA)/oligo(dT)18 after 60 mins
T1 sequence (P26019 whole entry): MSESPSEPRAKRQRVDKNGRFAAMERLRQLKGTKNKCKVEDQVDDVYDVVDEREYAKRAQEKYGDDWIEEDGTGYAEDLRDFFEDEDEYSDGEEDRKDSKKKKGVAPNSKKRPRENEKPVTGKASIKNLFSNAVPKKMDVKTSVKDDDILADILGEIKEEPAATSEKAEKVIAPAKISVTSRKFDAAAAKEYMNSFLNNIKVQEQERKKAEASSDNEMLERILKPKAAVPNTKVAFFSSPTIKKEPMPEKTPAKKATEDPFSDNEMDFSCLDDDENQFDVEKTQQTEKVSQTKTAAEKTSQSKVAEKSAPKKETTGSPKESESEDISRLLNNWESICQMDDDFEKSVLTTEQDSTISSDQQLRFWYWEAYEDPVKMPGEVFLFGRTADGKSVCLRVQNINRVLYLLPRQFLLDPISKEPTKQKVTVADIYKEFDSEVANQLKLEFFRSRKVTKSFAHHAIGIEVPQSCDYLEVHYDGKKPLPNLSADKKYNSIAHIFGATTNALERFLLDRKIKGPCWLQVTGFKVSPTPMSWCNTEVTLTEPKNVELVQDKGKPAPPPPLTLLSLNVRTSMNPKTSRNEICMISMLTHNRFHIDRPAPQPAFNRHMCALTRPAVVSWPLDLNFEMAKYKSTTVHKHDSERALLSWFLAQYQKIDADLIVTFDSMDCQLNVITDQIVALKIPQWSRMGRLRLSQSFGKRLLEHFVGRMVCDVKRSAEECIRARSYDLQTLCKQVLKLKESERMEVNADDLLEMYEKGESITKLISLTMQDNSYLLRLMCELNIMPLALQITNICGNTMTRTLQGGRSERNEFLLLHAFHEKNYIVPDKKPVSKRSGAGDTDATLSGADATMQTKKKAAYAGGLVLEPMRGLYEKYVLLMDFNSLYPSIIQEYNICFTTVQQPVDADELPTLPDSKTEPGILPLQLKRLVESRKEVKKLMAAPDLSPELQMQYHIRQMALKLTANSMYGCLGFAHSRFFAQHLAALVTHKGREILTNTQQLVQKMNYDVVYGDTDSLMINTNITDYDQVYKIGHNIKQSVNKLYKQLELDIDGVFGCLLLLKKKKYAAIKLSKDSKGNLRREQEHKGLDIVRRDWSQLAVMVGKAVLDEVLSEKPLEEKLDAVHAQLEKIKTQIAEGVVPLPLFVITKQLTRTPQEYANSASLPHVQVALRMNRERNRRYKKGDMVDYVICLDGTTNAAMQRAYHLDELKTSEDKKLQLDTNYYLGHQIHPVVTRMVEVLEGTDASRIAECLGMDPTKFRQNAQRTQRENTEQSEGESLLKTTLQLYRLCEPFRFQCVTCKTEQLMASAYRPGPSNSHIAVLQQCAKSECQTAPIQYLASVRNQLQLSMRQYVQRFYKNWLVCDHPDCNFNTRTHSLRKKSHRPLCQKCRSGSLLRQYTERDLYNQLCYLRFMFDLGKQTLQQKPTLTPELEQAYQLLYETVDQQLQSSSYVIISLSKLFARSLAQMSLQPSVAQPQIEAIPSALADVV

[4] = Inhibition of calf thymus DNA polymerase alpha assessed as inhibition of incorporation of dTTP into poly(dA)/oligo(dT)18 after 60 mins; design: species or system Bos taurus
[5] = target: DNA-directed DNA/RNA polymerase mu (Homo sapiens, UniProt Q9NP87); assay: Inhibition of human His-tagged recombinant DNA polymerase mu expressed in Escherichia coli BL21 assessed as inhibition of incorporation of dTTP into poly(dA)/oligo(dT)18 after 60 mins
[6] = target: T2, DNA polymerase delta catalytic subunit (Drosophila melanogaster, UniProt P54358); assay: Inhibition of fruit fly DNA polymerase delta assessed as inhibition of incorporation of dTTP into poly(dA)/oligo(dT)18 after 60 mins
T2 sequence (P54358 whole entry): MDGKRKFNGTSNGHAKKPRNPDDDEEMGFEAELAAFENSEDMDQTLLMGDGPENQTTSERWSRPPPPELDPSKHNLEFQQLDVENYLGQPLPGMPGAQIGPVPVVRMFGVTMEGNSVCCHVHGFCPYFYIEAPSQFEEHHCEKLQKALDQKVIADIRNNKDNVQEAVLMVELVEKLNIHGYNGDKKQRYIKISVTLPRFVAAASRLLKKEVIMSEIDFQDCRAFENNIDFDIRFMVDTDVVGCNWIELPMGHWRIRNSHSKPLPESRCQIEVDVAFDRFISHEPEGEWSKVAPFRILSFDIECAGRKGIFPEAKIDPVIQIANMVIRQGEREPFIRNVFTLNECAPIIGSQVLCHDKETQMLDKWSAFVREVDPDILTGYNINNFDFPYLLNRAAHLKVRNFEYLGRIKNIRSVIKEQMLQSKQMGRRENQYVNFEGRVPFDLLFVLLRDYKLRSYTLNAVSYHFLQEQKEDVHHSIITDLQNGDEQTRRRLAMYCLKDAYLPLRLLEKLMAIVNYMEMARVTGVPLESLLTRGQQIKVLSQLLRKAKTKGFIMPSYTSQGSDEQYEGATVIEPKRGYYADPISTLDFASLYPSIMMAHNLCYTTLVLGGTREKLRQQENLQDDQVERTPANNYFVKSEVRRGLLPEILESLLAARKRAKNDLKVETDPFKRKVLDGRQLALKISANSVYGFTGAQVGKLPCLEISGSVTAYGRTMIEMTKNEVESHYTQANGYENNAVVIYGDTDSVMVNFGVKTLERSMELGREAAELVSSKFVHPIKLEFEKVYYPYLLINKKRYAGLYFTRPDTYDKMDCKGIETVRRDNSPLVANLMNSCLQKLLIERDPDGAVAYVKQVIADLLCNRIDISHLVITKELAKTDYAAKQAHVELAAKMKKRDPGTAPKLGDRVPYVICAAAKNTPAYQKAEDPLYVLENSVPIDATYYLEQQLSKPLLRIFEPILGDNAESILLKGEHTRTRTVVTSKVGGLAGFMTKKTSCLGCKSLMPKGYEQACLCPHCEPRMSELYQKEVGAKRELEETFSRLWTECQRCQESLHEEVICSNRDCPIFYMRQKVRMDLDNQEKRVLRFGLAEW

Measured: IC50

Polynucleotide kinase, sequence (P06855 whole entry): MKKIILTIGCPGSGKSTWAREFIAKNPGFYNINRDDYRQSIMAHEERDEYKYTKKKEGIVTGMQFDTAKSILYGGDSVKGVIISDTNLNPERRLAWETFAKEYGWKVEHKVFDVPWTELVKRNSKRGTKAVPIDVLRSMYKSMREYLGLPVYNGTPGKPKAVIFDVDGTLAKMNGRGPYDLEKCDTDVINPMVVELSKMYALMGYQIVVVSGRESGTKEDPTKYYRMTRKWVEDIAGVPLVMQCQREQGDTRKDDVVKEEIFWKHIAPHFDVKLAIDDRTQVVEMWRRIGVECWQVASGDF
DNA-directed DNA/RNA polymerase mu, sequence (Q9NP87 whole entry): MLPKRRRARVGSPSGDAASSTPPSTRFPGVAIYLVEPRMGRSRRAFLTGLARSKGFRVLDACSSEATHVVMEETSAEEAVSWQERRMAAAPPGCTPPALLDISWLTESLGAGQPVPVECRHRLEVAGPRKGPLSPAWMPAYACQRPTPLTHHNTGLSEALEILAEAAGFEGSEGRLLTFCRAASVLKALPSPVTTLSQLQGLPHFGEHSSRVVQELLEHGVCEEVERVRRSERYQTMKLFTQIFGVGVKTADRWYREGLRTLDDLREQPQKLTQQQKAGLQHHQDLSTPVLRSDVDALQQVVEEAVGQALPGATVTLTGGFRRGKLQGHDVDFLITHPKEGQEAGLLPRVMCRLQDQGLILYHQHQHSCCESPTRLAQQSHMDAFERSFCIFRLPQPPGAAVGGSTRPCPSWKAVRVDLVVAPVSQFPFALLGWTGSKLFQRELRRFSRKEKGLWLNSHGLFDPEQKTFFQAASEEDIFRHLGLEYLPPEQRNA
Inosine-5'-monophosphate dehydrogenase 2, sequence (P24547 whole entry): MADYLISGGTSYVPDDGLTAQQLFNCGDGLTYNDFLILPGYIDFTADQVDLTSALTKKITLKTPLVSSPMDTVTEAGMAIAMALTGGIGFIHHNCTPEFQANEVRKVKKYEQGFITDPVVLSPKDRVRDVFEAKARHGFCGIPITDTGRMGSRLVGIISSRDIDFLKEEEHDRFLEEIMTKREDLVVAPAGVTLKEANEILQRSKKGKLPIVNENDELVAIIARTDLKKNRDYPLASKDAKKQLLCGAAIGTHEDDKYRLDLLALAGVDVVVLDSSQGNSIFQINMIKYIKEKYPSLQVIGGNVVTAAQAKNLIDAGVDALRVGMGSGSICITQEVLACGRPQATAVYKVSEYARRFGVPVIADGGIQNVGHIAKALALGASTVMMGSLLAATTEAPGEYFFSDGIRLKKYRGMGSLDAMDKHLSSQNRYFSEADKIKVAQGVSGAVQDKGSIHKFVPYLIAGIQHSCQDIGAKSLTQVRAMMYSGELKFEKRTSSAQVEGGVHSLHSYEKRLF

CC(/C=C/CCC(=O)N1CCCC1=O)=C\C1CCCCO1 (stereo not drawn)
> 200 µM: all assays above

CCCC[C@@H](O)/C=C(C)/C=C/C=C\C(=O)N1CCCC1=O
> 200 µM: all assays above

CCCCC(=O)/C=C(C)/C=C/CCC(=O)N1CCCC1=O
> 200 µM: all assays above

CCCC[C@@H](O)/C=C(C)/C=C/C=C/C(=O)N1CCCC1=O [PECILOCIN]
> 200 µM: all assays above
